According to PubChem BioAssay (NCI):
“And” between values parts separate entries of the source, which are not always exact repeats. Equal entries are not always repeated.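 Dose response: 5 concentrations. Exposure: 48 h. Format: 96-well plates. Endpoint: linear interpolation; highest concentration if not reached. GI50 marks 50% less growth. TGI: total growth inhibition.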

tested on: A498 renal; assay: DTP human tumour cell line panel, 48 h

Compound | TGI | GI50
COc1cc2c(cc1OC)C(Cl)C(c1ccc(F)cc1)=C2Cl (stereo not drawn) | 29.9 µM | 
CN(C)c1ccc(/C=N/NC(=S)Nc2ccccc2)cc1 | > 100 µM | 
COc1ccc2ncnc(Nc3ccc(OCc4ccccc4)cc3)c2c1 | 14.1 µM | 2.14 µM
O=C1c2c(F)c(F)c(F)c(F)c2C(=O)N1c1ccc(F)cc1F | 55.1 µM | 25.8 µM
CC(C)[C@@H]1NC(=O)[C@]2(C)CSC(=N2)c2ccnc(c2)CNC(=O)C[C@@H](/C=C/CCS)OC1=O | 0.254 µM | 0.0323 µM
OC(c1cc(C(F)(F)F)nc2c(C(F)(F)F)cccc12)C1CCCCN1 (stereo not drawn) | 7.83 µM | 1.81 µM
COC(=O)/C=C/c1cc(OC(C)=O)c2c(c1)[C@@H](C(=O)OC)[C@H](c1ccc(OC(C)=O)c(OC(C)=O)c1)O2 | 7.97 µM | 1.01 µM

tested on: M14 melanoma; assay: DTP human tumour cell line panel, 48 h

Compound | GI50 | TGI
O=C1OCC2=C1C(c1cccc(Br)c1)c1cc3c(cc1N2CCO)OCCO3 (stereo not drawn) | 0.0421 µM | 0.453 µM
COc1cc(-c2nc3sccn3c2-c2ccnc(NCCNS(=O)(=O)c3ccc(F)cc3)n2)ccc1F | 0.499 µM | > 100 µM
COc1cc(-c2nn(-c3cccc(NC(=O)c4ccccc4)c3)cc2-c2ccncc2)ccc1Cl | 0.565 µM | 12.8 µM
Cc1cc(Nc2ccc(C)c(Cl)c2)n2nc(C(F)(F)F)nc2n1 | 28.5 µM | 76.5 µM
COc1ccc(Cn2c(Br)c3c(c2Br)-c2nc(N)sc2CC3)cc1 | 3.96 µM | 17.6 µM
O=C1CSC(=S)N1/N=C/c1ccc(Cl)c([N+](=O)[O-])c1 |  | 40.6 µM
CCOc1ccc(NC2=CC(=O)C(=O)c3ccccc32)cc1 |  | 3.27 µM
COc1cc2c(cc1OC)-c1cc(OC)c(OC)cc1C(CN(C)C)C2 (stereo not drawn) | > 10 µM | > 10 µM
O=C1c2ccccc2C(=O)c2c(/C=C\N3CCCCC3)ccnc21 |  | 1.26 µM
C=C1C[C@H](O)[C@H](Br)C(C)(C)[C@@]12CCC(C)=C(Cl)C2 | 0.314 µM | 1.66 µM
O=C(NC1CCCCC1)NS(=O)(=O)c1ccc(N2N=C3c4ccccc4CC3C2c2ccc(Cl)cc2)cc1 (stereo not drawn) | 10.8 µM | 24.4 µM
c1ccc(-c2n(Cc3ccc4ccccc4n3)cc[n+]2Cc2ccc3ccccc3c2)cc1 | 1.25 µM | 3.35 µM
C[C@@H]1CC[C@H]2C(C)(C)[C@H]3C[C@@]12CC[C@@]3(C)O |  | > 100 µM
CC(C)(C)[Si](C)(C)OC1[C@@H](O[Si](C)(C)C(C)(C)C)[C@@H](CNC(=O)NC(=O)C(F)(F)F)O[C@H]1n1cnc2c(NC(=O)Nc3ccccc3)ncnc21 (stereo partly drawn) | 5.72 µM | 13.2 µM
CCOC(=O)n1cc(C2=C(c3ccc(OC)c(OC)c3)COC2=O)c2ccccc21 | 0.0348 µM | > 100 µM
CC(=C(c1ccc(OCCN2CCCCC2)cc1)c1ccc(OCCN2CCCCC2)cc1)c1ccc(Cl)cc1 | 0.438 µM | 0.837 µM
C=CC(=O)Nc1cc(Nc2nccc(-c3cn(C)c4ccccc34)n2)c(OC)cc1N(C)CCN(C)C | 1.91 µM and 1.73 µM | 3.6 µM and 3.32 µM
C=C1C(=O)O[C@H]2[C@H]1CC/C(CNC(=O)c1cc3ccccc3[nH]1)=C\CC[C@@]1(C)O[C@@H]21 | 1.12 µM | 2.81 µM
Cc1cc2c(cc1C)[n+](=O)c(C(=O)c1ccccc1)c(C(F)F)n2[O-] | 16.9 µM | > 100 µM
COc1cc2c(cc1OC)C(Cl)C(c1ccc(F)cc1)=C2Cl (stereo not drawn) |  | 29.2 µM
CN(C)c1ccc(/C=N/NC(=S)Nc2ccccc2)cc1 |  | > 100 µM
COc1ccc2ncnc(Nc3ccc(OCc4ccccc4)cc3)c2c1 | 8.48 µM | > 25 µM
O=C1c2c(F)c(F)c(F)c(F)c2C(=O)N1c1ccc(F)cc1F | 13.4 µM | 33.6 µM
CC(C)[C@@H]1NC(=O)[C@]2(C)CSC(=N2)c2ccnc(c2)CNC(=O)C[C@@H](/C=C/CCS)OC1=O | 0.0957 µM | > 100 µM
OC(c1cc(C(F)(F)F)nc2c(C(F)(F)F)cccc12)C1CCCCN1 (stereo not drawn) | 1.83 µM | 3.41 µM
COC(=O)/C=C/c1cc(OC(C)=O)c2c(c1)[C@@H](C(=O)OC)[C@H](c1ccc(OC(C)=O)c(OC(C)=O)c1)O2 | 0.0338 µM | 39 µM
